The record followed here is patent US20080299140A1, “Immunogenic Composition and Peptide Sequences for Prevention and Treatment of an Hsv Condition” (priority 2002, published 2008).

The target of assay [1] is T1, DR1=HLA-DR(α1*0101,α1*0101) (Homo sapiens, UniProt P01903+P01911, A100R/D57E/F55L/F60I/F76Y/I96L/L162R/M171V/P40L/Q125E/R42F/V115G/Y59C).
T1 construct: endogenous in cells; host or cells: EBV homozygous human B cell line
As to the kind of experiment: biochemical. The assay is classed as binding. The note with it: […].

For assay [2], the target named is T2, DR3=HLA-DR(α1*0101,α1*0301) (Homo sapiens, UniProt P01903+P01911, A100K/A102G/A103R/A169T/F55Y/I96L/K41T/L162R/M171V/P40S/Q125H/Q178H/Q39Y/R42S/S66N/T106N/T262R/W38E/Y61H).
T2 construct: endogenous in cells; host or cells: STEILIN (EBV homozygous B cell line)
As to the kind of experiment: HLA-DR specific binding assay, DR3.

Assay [3] concerns the target T3, DR4=HLA-DR(α1*0101,α1*0401) (Homo sapiens, UniProt P01903+P01911, A100K/A169T/F76Y/I96L/K127E/L162R/M171V/N62H/P40V/Q125Y/R42H/S133A/S149N/S66Y/V115G/V209L/W38E).
T3 construct: endogenous in cells; host or cells: BOLETH (EBV homozygous B cell line)
As to the kind of experiment: biochemical. In kind it is binding.

The target in assay [4] is T4, DR7=HLA-DR(α1*0101,α1*0701) (Homo sapiens, UniProt P01903+P01911, A100R/A102G/A103Q/D57E/D86V/E43K/F76Y/K127E/L162R/M171V/P40G/Q125H/Q99D/R33Q/R42Y/R54Q/S133A/S66F/T210M/V115G/Y107V/Y59L/Y89S).
T4 construct: endogenous in cells; host or cells: EBV homozygous human B cell line
As to the kind of experiment: HLA-DR specific binding assay, DR7.

Assay [5] addresses T5, DR11=HLA-DR(α1*0101,α1*1101) (Homo sapiens, UniProt P01903+P01911, A100R/A169T/A87E/I96F/K41T/L162R/M171V/P40S/Q125H/Q178H/Q39Y/Q99D/R42S/S66Y/T262R/V115G/W38E).
T5 construct: endogenous in cells; host or cells: SWEIG (EBV homozygous B cell line)
As to the kind of experiment: biochemical. In kind it is binding.

In assay [6] the target is T6, DR13=HLA-DR(α1*0101,α1*1301) (Homo sapiens, UniProt P01903+P01911, A100E/A169T/K41T/L162R/M171V/P40S/Q125H/Q178H/Q39Y/Q99D/R42S/S66N/T262R/W38E/Y61H).
T6 construct: endogenous in cells; host or cells: 0206AD (EBV homozygous B cell line)
As to the kind of experiment: HLA-DR specific binding assay, DR13.

Assay [7] deals with T7, DR15=HLA-DR(α1*0101,α1*1501) (Homo sapiens, UniProt P01903+P01911).
T7 construct: endogenous in cells; host or cells: EBV homozygous human B cell line
As to the kind of experiment: HLA-DR specific binding assay, DR15.

The target in assay [8] is T8, DRB3=HLA-DR(α1*0101,α3*0101) (Homo sapiens, UniProt P01903+P79483).
T8 construct: endogenous in cells; host or cells: STEILIN or 0206AD (both typed DRB3*0101)
As to the kind of experiment: HLA-DR specific binding assay, DRB3 (DR52).

For assay [9], the target named is T9, DRB4=HLA-DR(α1*0101,α4*0101) (Homo sapiens, UniProt P01903+P13762, G164S).
T9 construct: endogenous in cells
As to the kind of experiment: HLA-DR specific binding assay, DRB4 (DR53).

In assay [10] the target is T10, DRB5=HLA-DR(α1*0101,α5*0101) (Homo sapiens, UniProt P01903+Q30154).
T10 construct: endogenous in cells; host or cells: EBV homozygous human B cell line
As to the kind of experiment: biochemical. The assay is classed as binding. The note with it: Table V; […]; read-out: IC50 DRB5.

The target of assay [11] is T11, DP401=HLA-DP(α1*0101,α1*0401) (Homo sapiens, UniProt P04440+P20036).
T11 sequence (P20036 32-260 limits assumed): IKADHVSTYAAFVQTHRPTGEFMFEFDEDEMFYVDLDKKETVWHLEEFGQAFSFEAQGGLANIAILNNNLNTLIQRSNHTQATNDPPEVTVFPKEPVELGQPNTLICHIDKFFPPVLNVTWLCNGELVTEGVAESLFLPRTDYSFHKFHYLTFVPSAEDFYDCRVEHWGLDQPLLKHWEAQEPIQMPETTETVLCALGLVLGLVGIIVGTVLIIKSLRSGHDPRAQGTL
T11 sequence (P04440 30-258): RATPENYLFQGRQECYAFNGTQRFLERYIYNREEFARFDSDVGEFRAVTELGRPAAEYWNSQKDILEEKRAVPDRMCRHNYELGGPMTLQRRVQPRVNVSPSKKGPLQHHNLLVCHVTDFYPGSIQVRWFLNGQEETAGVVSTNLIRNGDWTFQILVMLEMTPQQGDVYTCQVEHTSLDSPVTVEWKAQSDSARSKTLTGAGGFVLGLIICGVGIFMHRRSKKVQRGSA
As to the kind of experiment: biochemical. In kind it is binding.

The target of assay [12] is T12, DP402 DP (α1*0101, α1*0402) (Homo sapiens, UniProt P04440+P20036, A65V/A84D/A85E/L207M).
T12 sequence (P20036 29-260): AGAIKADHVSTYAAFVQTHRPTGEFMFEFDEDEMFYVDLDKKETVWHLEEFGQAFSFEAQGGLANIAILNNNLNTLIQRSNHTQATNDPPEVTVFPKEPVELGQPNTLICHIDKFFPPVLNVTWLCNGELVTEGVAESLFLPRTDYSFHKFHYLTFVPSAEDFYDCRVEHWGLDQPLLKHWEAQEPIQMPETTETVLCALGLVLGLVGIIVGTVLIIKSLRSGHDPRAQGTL
T12 sequence (P04440 30-258 A65V/A84D/A85E): T11 sequence (P04440 30-258) with A36V, A55D, A56E
As to the kind of experiment: biochemical. In kind it is binding.

Setting [13] is: Table V, […], read-out: IC50 DR4.
[14] abbreviates: Table V, […], read-out: IC50 DR11.

Residue numbers refer to the chain shown, from its start. Read-outs that look alike come from different tables or passages of the source.

T10 sequence (Q30154 30-266, other chains not shown): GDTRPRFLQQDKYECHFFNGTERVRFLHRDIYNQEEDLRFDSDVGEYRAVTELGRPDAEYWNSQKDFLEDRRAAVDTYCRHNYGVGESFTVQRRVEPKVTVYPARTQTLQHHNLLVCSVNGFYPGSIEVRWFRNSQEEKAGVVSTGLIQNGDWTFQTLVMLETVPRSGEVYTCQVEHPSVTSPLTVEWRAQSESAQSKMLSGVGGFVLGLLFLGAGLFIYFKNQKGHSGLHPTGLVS
T8 sequence (P79483 30-266, other chains not shown): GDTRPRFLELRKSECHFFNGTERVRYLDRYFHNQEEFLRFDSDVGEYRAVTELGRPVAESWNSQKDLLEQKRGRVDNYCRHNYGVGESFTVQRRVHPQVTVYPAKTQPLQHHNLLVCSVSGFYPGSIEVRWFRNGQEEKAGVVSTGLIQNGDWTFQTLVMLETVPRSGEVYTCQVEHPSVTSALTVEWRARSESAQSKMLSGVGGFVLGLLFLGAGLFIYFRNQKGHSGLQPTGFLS

A word on the IC50: it is the concentration that inhibits the measured activity by half. Regarding `CSCC[C@H](NC(=O)[C@H](CC(=O)O)NC(=O)[C@@H](NC(=O)[C@@H](NC(=O)[C@H](CCCCN)NC(=O)[C@H](C)NC(=O)[C@H](CO)NC(=O)[C@H](CC(C)C)NC(=O)[C@H](CC(C)C)NC(=O)[C@H](C)NC(=O)[C@H](CO)NC(=O)[C@@H](NC(=O)CN)[C@@H](C)O)C(C)C)[C@@H](C)O)C(=O)N[C@H](C(=O)N[C@@H](CCSC)C(=O)N[C@@H](CCCNC(=N)N)C(=O)N[C@@H](CCCCN)C(=O)N[C@@H](CCCNC(=N)N)C(=O)N[C@@H](CCCNC(=N)N)C(=O)N[C@@H](CC(N)=O)C(=O)N[C@H](C(=O)N[C@@H](CC(N)=O)C(=O)N[C@@H](Cc1ccc(O)cc1)C(=O)N[C@H](C(=O)N[C@@H](CCC(N)=O)C(=O)N[C@H](C(=O)N1CCC[C@H]1C(=O)N[C@@H](CC(N)=O)C(=O)N[C@@H](CCCCN)C(=O)N[C@@H](CC(=O)O)C(=O)NCC(=O)N[C@@H](CC(=O)O)C(=O)N[C@@H](C)C(=O)N[C@@H](CC(=O)O)C(=O)O)C(C)C)[C@@H](C)O)[C@@H](C)O)C(C)C` [HSV 9], the IC50 in assay [1] (Table V, read-out: IC50 DR1) was 493 nM; in assay [2] (IC50 DR3, Table V, […]), 11400 nM; in assay [3] (setting [13]), 4000 nM; in [4] it was 229 nM; in [5] (setting [14]) it was 424 nM; in [6], 362 nM. Further, the IC50 in assay [7] came out at 2430 nM; in [8] (IC50 DRB3, Table V, […]), 58000 nM; in assay [9] it was 16000 nM; in assay [10], 559 nM; in [11] (Table V, […]), 8000 nM; in assay [12] (Class II MHC allele DP402), 4000 nM. The IC50 in [12] (Table V, […]) is 4000 nM.
Turning to `CSCC[C@H](NC(=O)[C@H](CCCCN)NC(=O)[C@H](CC(C)C)NC(=O)[C@H](CO)NC(=O)[C@H](C)NC(=O)[C@H](CC(=O)O)NC(=O)[C@@H](NC(=O)[C@H](CC(C)C)NC(=O)[C@H](C)NC(=O)[C@H](Cc1ccc(O)cc1)NC(=O)[C@H](CCCCN)NC(=O)[C@@H](N)CO)C(C)C)C(=O)N[C@@H](C)C(=O)N[C@@H](CC(=O)O)C(=O)N1CCC[C@H]1C(=O)N[C@@H](CC(N)=O)C(=O)N[C@@H](CCCNC(=N)N)C(=O)N[C@@H](Cc1ccccc1)C(=O)N[C@@H](CCCNC(=N)N)C(=O)NCC(=O)N[C@@H](CCCCN)C(=O)N[C@@H](CC(=O)O)C(=O)N[C@@H](CC(C)C)C(=O)N1CCC[C@H]1C(=O)N[C@H](C(=O)N[C@@H](CC(C)C)C(=O)N[C@@H](CC(=O)O)C(=O)N[C@@H](CCC(N)=O)C(=O)N[C@@H](CC(C)C)C(=O)O)C(C)C` [HSV 30], the 50% inhibitory concentration (IC50) in assay [1] (Class II MHC allele DR1, read-out: IC50, DR1) amounted to 58 nM; in assay [2] (IC50, DR3, Class II MHC allele DR3), 79 nM; in assay [2] (IC50 DR3, Table V, […]), 78 nM; in assay [3] (setting [13]), 58 nM; in [4] it was 374 nM; in assay [5] (setting [14]), 648 nM. Also, the IC50 in assay [6] is more than 100000 nM; in assay [7] it was 11000 nM; in assay [8] (IC50 DRB3, Table V, […]) it was 535 nM; in [9] it was more than 100000 nM; in assay [10] it was 7 nM; in assay [11] (Class II MHC allele DP401), 17700 nM. The IC50 amounted to 17900 nM in assay [11] (Table V, […]) and 3800 nM in assay [12] (Table V, […]).
For the molecule `CC[C@H](C)[C@H](NC(=O)[C@H](Cc1c[nH]cn1)NC(=O)[C@H](Cc1ccc(O)cc1)NC(=O)[C@@H](NC(=O)[C@H](CCCNC(=N)N)NC(=O)[C@H](CCCNC(=N)N)NC(=O)[C@@H](NC(=O)CNC(=O)[C@@H]1CCCN1C(=O)[C@@H]1CCCN1C(=O)[C@H](CC(=O)O)NC(=O)[C@@H](NC(=O)[C@H](CC(C)C)NC(=O)[C@H](CCC(N)=O)NC(=O)[C@H](CC(=O)O)NC(=O)[C@H](CC(C)C)NC(=O)[C@@H](NC(=O)[C@@H]1CCCN1C(=O)[C@H](CC(C)C)NC(=O)[C@@H](N)CC(=O)O)C(C)C)[C@@H](C)O)C(C)C)C(C)C)C(=O)N[C@@H](CCC(N)=O)C(=O)N[C@@H](C)C(=O)NCC(=O)N[C@@H](CC(C)C)C(=O)N1CCC[C@H]1C(=O)N[C@@H](CC(=O)O)C(=O)N1CCC[C@H]1C(=O)N[C@@H](Cc1ccccc1)C(=O)N[C@@H](CCC(N)=O)C(=O)N1CCC[C@H]1C(=O)N1CCC[C@H]1C(=O)N[C@@H](CO)C(=O)O` [HSV 31], the half-inhibitory concentration (IC50) is 3 nM in assay [1] (Table V, read-out: IC50 DR1); 2490 nM in assay [2] (IC50 DR3, Table V, […]); 63 nM in assay [3] (IC50 DR4); 224 nM in assay [4]; more than 100000 nM in assay [6]; 787 nM in assay [7]. In addition, the IC50 in assay [8] (IC50, DRD3, Class II MHC allele DRD3 (so in the source)) came out at 6980 nM; in assay [8] (IC50 DRB3, Table V, […]), 5980 nM; in [9], 397 nM; in assay [10], 58 nM; in [11] (Table V, […]), 62000 nM; in assay [12] (Class II MHC allele DP402), 49000 nM. The IC50 in assay [12] (Table V, […]) came out at 47000 nM.
For `CC[C@H](C)[C@H](NC(=O)[C@H](CCC(N)=O)NC(=O)[C@@H]1CCCN1C(=O)[C@H](C)N)C(=O)N[C@H](C(=O)N[C@@H](CCCNC(=N)N)C(=O)NCC(=O)N[C@@H](C)C(=O)N[C@@H](CO)C(=O)N[C@@H](CCC(=O)O)C(=O)N[C@@H](CC(=O)O)C(=O)N[C@H](C(=O)N[C@@H](CCCNC(=N)N)C(=O)N[C@@H](CCCCN)C(=O)N[C@@H](CCC(N)=O)C(=O)N1CCC[C@H]1C(=O)N[C@@H](Cc1ccc(O)cc1)C(=O)N[C@@H](CC(N)=O)C(=O)N[C@@H](CC(C)C)C(=O)N[C@H](C(=O)N[C@H](C(=O)N[C@@H](C)C(=O)N[C@@H](Cc1c[nH]c2ccccc12)C(=O)N[C@@H](Cc1ccccc1)C(=O)N[C@@H](CCCNC(=N)N)C(=O)N[C@@H](CCSC)C(=O)NCC(=O)NCC(=O)O)[C@@H](C)CC)[C@@H](C)O)C(C)C)C(C)C` [HSV 32], the IC50 in assay [2] (IC50 DR3, Table V, […]) is 2350 nM; in [4], 4 nM; in assay [5] (Class II MHC allele DR11, read-out: IC50, DR11), 300 nM; in [5] (setting [14]) it was 300 nM; in assay [8] (IC50 DRB3, Table V, […]), more than 100000 nM; in assay [10], 1 nM. For the same molecule, the IC50 in assay [11] (Table V, […]) was 1450 nM; in assay [12] (Table V, […]) it was 381 nM.
